In patent US12350273B2, “Treatment of SMA” (Hoffmann-La Roche Inc., priority 2017, dated 2025):

How the values were obtained:
[1] = Study BP39055 Part 1: pharmacokinetics (AUC0-24h,ss) in SMA patients; format: in vivo, human; details: for AUC(0-t): human, in vivo, read-out: estimated AUC0-24h,ss, median
Excerpt: Study BP39055 is a two-part operationally seamless, multi-center, randomized, placebo-controlled, double-blind study to investigate the safety, tolerability, pharmacokinetics (PK), pharmacodynamics (PD) and efficacy of RO7034067 in Type 2 and 3 spinal muscular atrophy (SMA) patients. The study consists of an exploratory dose-finding part (Part 1) and a confirmatory part (Part 2).
The primary objective of Part 1 is to evaluate the safety, tolerability, PK and PD of RO7034067 in patients with Type 2 and Type 3 (ambulant or non-ambulant) SMA, and to select the dose for Part 2 of the study.
Part 1 was a double-blinded, placebo-controlled, randomized (2:1 RO7034067:placebo), exploratory dose-finding study in Type 2 and Type 3 (ambulant and non-ambulant) SMA patients. This will be followed by an open-label extension (OLE) at the same dose as selected for Part 2 of the study.
Part 1 of the study enrolled patients in two age groups: • Group A: adolescent and adult patients aged 12 25 years • Group B: children aged 2 11 years RO7034067 dose levels were investigated in a staggered, dose escalation manner in both age groups.
The dose recommended by the IMC for this age group according to the target AUC0-24 h,ss of 700 ng[…]h/mL was 0.02 mg/kg (see IMC recommendation of 12 Dec. 2016 in Appendix 1); 10 patients aged 3-11 years were enrolled in Cohort B1. • At the same time point (i.e., once safety and tolerability were confirmed based on the review of at least 4 weeks of treatment at 3 mg once daily in 9 patients in Cohort A1), enrolment was opened to another cohort of 9 adult and adolescent patients (Cohort A2) receiving RO7034067 5 mg once daily (see IMC recommendation of 19 Jan. 2017 in Appendix 1). As per protocol, the higher dose level was determined such as to achieve maximum SMN protein increase, without exceeding the exposure cap (Cmax 400 ng/mL; mean AUC0 24 h,ss 2000 ng[…]h/mL); 10 patients aged 13[…]24 years were enrolled in Cohort A2. • Based on the review of a minimum of 4 weeks of treatment at 0.02 mg/kg in 9 patients enrolled in Cohort B1, the following recommendations were made by the IMC: i) to increase the dose in these patients to 0.05 mg/kg without exceeding a cap dose of 3 mg, and ii) to enroll a minimum of 9 additional patients aged 2[…]11 years at a dose of 0.05 mg/kg without exceeding a cap dose of 3 mg (Cohort B2), targeting at least 5 patients aged 2[…]6 years (see IMC recommendation of 13 Mar. […] At the same time point, enrollment was opened to another cohort of 9 patients at the dose of 0.25 mg/kg without exceeding a cap dose of 5 mg (Cohort B3), determined such as to achieve maximum Survival of Motor Neuron (SMN) protein increase, without exceeding the exposure cap (Cmax 400 ng/mL; mean AUC0-24 h,ss 2000 ng[…]h/mL); 10 patients aged 2[…]11 years were enrolled in Cohort B3. • Upon completion of at least 12 weeks of placebo-controlled treatment by a minimum of 9 patients of each cohort, the IMC reviewed all available data from the cohort to make the decision to switch placebo patients to active treatment at the dose tested in their respective cohort. Dates of the IMC decisions to switch placebo patients to active treatment in the respective cohorts are provided in Section 1.3. • For the last cohort in Part 1 (Cohort B3), all available safety, tolerability, PK and PD data following completion of a minimum of 4 weeks treatment by the 9th patient (including all available data for the 10th patient of the last cohort who was enrolled approximately 1 week after the 9th patient, and all available data from all previous cohorts) were reviewed by the IMC in order to select the dose to be administered in Part 2 of the study. This dose selection was confirmed by the external iDMC following review of the same data package. […]

MADD gene transcript = assay: 2-week dose-range finding toxicity study in cynomolgus monkey: MADD splicing in spleen, duodenum, testis; format: in vivo; details: cynomolgus monkey 2 weeks, highest dose (0.75, 1.5, 3 and 6 mg/kg/day tested); all three organs
Protocol: Similar investigations were integrated into the 2-week dose-range finding toxicity study conducted in the cynomolgus monkey with RO7034067. For this purpose, spleen, duodenum, and testis were analyzed from the animals treated with 0.75, 1.5, 3 and 6 mg/kg/day. […] Since secondary pharmacology was detected in spleen, this organ was further analyzed for transcriptome-wide mRNA splicing or expression changes by RNA-sequencing. […] Furthermore, a dose-dependent trend for pathway expression changes was not detected. Therefore, while the few changes in RO7034067-mediated alternative transcript splicing are consistent with in vitro data and those of other SMN2 splicing modifiers, they seem not to fundamentally affect biological pathways or processes under the conditions of this study.

Melanin binding in vitro = format: in vitro ADME
[2] = 39-week monkey toxicity study: retina effects (ERG, sdOCT, histopathology), NOAEL; details: cynomolgus monkey; for AUC(0-t): plasma
retina = assay: as above; details: for ERG B-wave amplitude, left eye / ERG B-wave amplitude, right eye: Animal 0114 (female, 7.5/5 mg/kg/day)

Compound: Cc1cn2nc(-c3cc(=O)n4cc(N5CCNC6(CC6)C5)ccc4n3)cc(C)c2n1 [RO7034067, 7-(4,7-diazaspiro[2.5]octan-7-yl)-2-(2,8-dimethylimidazo[1,2-b]pyridazin-6-yl)pyrido[1,2-a]pyrimidin-4-one]
- AUC(0-t) ([1]; 2-11 yr, 0.02 mg/kg): 133 ng·h/mL
- AUC(0-t) ([1]; 2-11 yr, 0.05 mg/kg): 407 ng·h/mL
- AUC(0-t) ([1]; 2-11 yr, 0.15 mg/kg): 822 ng·h/mL
- AUC(0-t) ([1]; 2-11 yr, 0.25 mg/kg): 1450 ng·h/mL
- AUC(0-t) ([1]; 12-25 yr, 3 mg): 1040 ng·h/mL
- AUC(0-t) ([1]; 12-25 yr, 5 mg): 1610 ng·h/mL
- predicted mean exposure (AUC0-24h,ss) ([1]; selected BP39055 Part 2 dose, all patients 2-25 years of age): 1690 ng·h/mL
- mRNA isoform specific qPCR of MADD gene transcript (MADD gene transcript): secondary pharmacological response
- melanin binding (Melanin binding in vitro): high melanin binding
- NOAEL at 39 weeks ([2]; both, in vivo, po): 1.5 mg/kg/day
- AUC(0-t) ([2]; oral): 4260 ng·h/mL
- AUC(0-t) ([2]; female, po, 3 mg/kg/day): 4850 ng·h/mL
- AUC(0-t) ([2]; female, po, 5 mg/kg/day): 6470 ng·h/mL
- AUC(0-t) ([2]; male, po, 3 mg/kg/day): 4880 ng·h/mL
- AUC(0-t) ([2]; male, po, 5 mg/kg/day): 5880 ng·h/mL
- animals noted with ERG deficits (retina; 1.5 mg/kg/day): No animals
- retinal appearance by sdOCT (retina; 1.5 mg/kg/day): retained a normal retinal appearance
- AUC0-24h exposure free of retina effects (NOEL/NOAEL of the retina finding), females (retina; 1.5 mg/kg/day, 39 weeks, females): 2060 ng·h/mL
- AUC0-24h exposure free of retina effects (NOEL/NOAEL of the retina finding), males (retina; 1.5 mg/kg/day, 39 weeks, males): 1870 ng·h/mL
- animals with adverse histopathologic degeneration in mid to peripheral retina (retina; 3 mg/kg/day): one female
- animals with adverse histopathologic degeneration in mid to peripheral retina (retina; 7.5/5 mg/kg/day): two animals/sex
- ERG finding in several animals (retina; 7.5/5 mg/kg/day, Week 20 of the dosing phase): markedly depressed scotopic and photopic ERGs
- primary finding of 39-week administration (retina; 7.5/5 mg/kg/day, correlated with nonadverse epidermal hyperplasia): clinical signs in the skin
- reversibility of retinal degeneration (histopathology) (retina; 22-week recovery period): not reversible during the recovery period
- recovery of MMD and depressed ERG (retina; 22-week recovery phase): almost fully recovered
- ERG B-wave amplitude, left eye (retina; recovery Week 22): 52.7 mcV
- ERG B-wave amplitude, right eye (retina; recovery Week 22): 43.4 mcV
- ERG B-wave amplitude, left eye (retina; recovery week 8): 33.5 mcV
- ERG B-wave amplitude, right eye (retina; recovery week 8): 34.1 mcV
- lowest AUC0-24h exposure at the mid-dose with retina findings (retina; animal No. 11): 4540 ng·h/mL
- lowest AUC0-24h exposure at the mid-dose with retina findings (retina; animal No. 109): 4560 ng·h/mL
- lowest AUC0-24h exposure at the mid-dose with retina findings (retina; animal No. 111): 4560 ng·h/mL
- animals with rod ERGs below the criteria (retina; females, 1 mg/kg/day, Week 34): Two
- animals with depressed rod responses (ERG grading) (retina; females, 3 mg/kg/day, Week 22): all three
- animals with depressed rod responses (ERG grading) (retina; females, 3 mg/kg/day, Week 27): none
- animals with depressed rod responses (ERG grading) (retina; females, 3 mg/kg/day, Week 35): 1 of 3
- animals with depressed rod responses (ERG grading) (retina; females, 7.5/5 mg/kg/day, Week 20): 4 of 5
- animals with depressed rod responses (ERG grading) (retina; females, 7.5/5 mg/kg/day, Week 26): 2 of 5
- animals with depressed rod responses (ERG grading) (retina; females, 7.5/5 mg/kg/day, Week 34): 4 of 5
- individual AUC0-24h exposure free of effects on the retina (retina; individual animals, end of study): up to 2300 ng·h/mL
- ERG finding (retina; intermediate and low dose groups (3.0 and 1.5 mg/kg/day), dosing phase): generally remained within expected limits
- animals with rod response below the expected range (retina; males, 1 mg/kg/day): No males
- animals with depressed rod responses (ERG grading) (retina; males, 3 mg/kg/day, Week 22): 1 of 3
- animals with depressed rod responses (ERG grading) (retina; males, 3 mg/kg/day, Week 26 or 35): none
- sdOCT finding (retina; males, 3 mg/kg/day, Weeks 22, 27 and 35): minimal/mild retinal disorganization in the periphery
- animals with depressed rod responses (ERG grading) (retina; males, 7.5/5 mg/kg/day, Week 20): Four of five
- animals with depressed rod responses (ERG grading) (retina; males, 7.5/5 mg/kg/day, Week 26): 2 of 5
- animals with depressed rod responses (ERG grading) (retina; males, 7.5/5 mg/kg/day, Week 34): 5 of 5
